ChEMBL document CHEMBL1150469, “The conserved acid binding domain model of inhibitors of protein phosphatases 1 and 2A: Molecular modelling aspects” (Bioorg Med Chem Lett, 1993)

Key:
Mus musculus [1] = species on record: Mus musculus; assay: Tested for inhibition of specific [3H]- okadaic acid binding to the cytosolic fraction of mouse skin; assay type: functional
Mus musculus [2] = species on record: Mus musculus; assay: Tested for intra peritoneal dose at which compound dose not show toxicity in mouse; assay type: functional, organism-based
Mus musculus [3] = species on record: Mus musculus; assay: Tested for inhibition of specific [3H]- okadaic acid binding to the cytosolic fraction of mouse liver.; assay type: functional
Mus musculus [4] = species on record: Mus musculus; assay: Tested for inhibition of specific [3H]- okadaic acid binding to the cytosolic fraction of mouse skin.; assay type: functional

| Structure (SMILES) | ED50 (Mus musculus [1]) [nM] | DOSE (Mus musculus [2]) [mg/kg] | ED50 (Mus musculus [3]) [nM] | ED50 (Mus musculus [4]) [nM] |
| --- | --- | --- | --- | --- |
| C=C1C(=O)N[C@H](C)C(=O)N[C@@H](CC(C)C)C(=O)N[C@@H](C(=O)O)[C@H](C)C(=O)N[C@@H](CCCNC(=N)N)C(=O)N[C@@H](/C=C/C(C)=C/[C@H](C)[C@H](Cc2ccccc2)OC)[C@H](C)C(=O)N[C@@H](C(=O)O)CCC(=O)N1C (stereo in doubt; form 1) | 68 |  |  |  |
| C=C1C(=O)N[C@H](C)C(=O)N[C@@H](CC(C)C)C(=O)N[C@@H](C(=O)O)[C@H](C)C(=O)N[C@@H](CCCNC(=N)N)C(=O)N[C@@H](/C=C/C(C)=C/[C@H](C)[C@H](Cc2ccccc2)OC)[C@H](C)C(=O)N[C@@H](C(=O)O)CCC(=O)N1C (stereo in doubt; form 2) | 8 | 1 | 1.3 |  |
| C=C1[C@@H](O)[C@@H]2O[C@]3(CC[C@H](/C=C/[C@@H](C)[C@@H]4CC(C)=C[C@@]5(O[C@H](C[C@@](C)(O)C(=O)O)CC[C@H]5O)O4)O3)CC[C@H]2O[C@@H]1[C@@H](O)C[C@H](C)[C@H]1O[C@@]2(CCCCO2)CC[C@H]1C [OKADAIC ACID] |  |  | 3.2 | 2.8 |
| COC[C@@H]([C@H](O)[C@H](O)C(=O)NCC[C@H](C)c1nc(/C=C/C[C@@H]2O[C@]3(C[C@@H](O)[C@@H]2C)O[C@H]([C@H](C[C@H](O)[C@H](C)[C@H](O)[C@H](C)/C=C(C)/C(C)=C/C=C/C(C)=C\C#N)OC)[C@H](OP(=O)(O)O)C3(C)C)co1)N(C)C [CALYCULIN A] | 2.8 |  |  |  |
